We go through 9 compounds from patent US4120810A, “Paint remover with improved safety characteristics” (priority 1976, dated 1978).

Read-outs that look alike come from different tables or passages of the source.

For data set [1] the following is noted: cited from earlier work.
Data set [2] can be described thus: Paint removal comparison of NMP/Panasol AN-1 mixtures with the pure components (Example 1). As to the method: Various mixtures of Panasol AN-1 and NMP were compared against the paint removal efficiency of the pure components. The following surfaces were tested: alkyd enamel, polyurethane varnish, two-part epoxy enamel, polyurethane marine enamel, latex enamel, and a surface with seven layers of aged alkyd enamels.
The straight line drawn at a 45° angle represents the expected effectiveness, based on the state of the art with an averaging of the properties of the pure components (R. S. Downing, ibid.).

A short description of data set [3]: Paint removal, NMP and benzyl alcohol (Example 9). The settings on record: alone. From the text:
However, its mixture with NMP had substantially less effectiveness than either pure component.

For data set [4] the following is noted: 75° F.; cited from earlier work.
Data set [5] can be described thus: Paint removal, N-vinyl 2-pyrrolidone mixtures and pyrrolidone 2 (Example 4). As to conditions: variety of surfaces, as in Example 1. The protocol: N-vinyl 2-pyrrolidone was substituted for NMP in the mixtures prepared in Example 1. They were tested as a paint remover on a variety of surfaces, also as in Example 1.
Data set [6] can be described thus: Paint stripping, xylene and diacetone alcohol mixture (Example 7). From the text: A 50 mole percent mixture of xylene and diacetone alcohol was compared against the pure components on a number of substrates for use as paint strippers. […] On an alkyd sash and trim paint the xylene was ineffective.
The nature of data set [7]: Minutes to complete bubbling / softening of finishes (Example 5). As to the method: A 50 mole percent mixture of diacetone alcohol as the first chemical and Panasol AN-1 as the second chemical was compared against pure diacetone alcohol on a variety of surfaces.
Latex enamel was also tested.

The nature of data set [8]: Deglosser test: adhesion of latex enamel to wiped alkyd enamel (Example 6). As to conditions: after wiping off cooking oil with saturated paper towel, painting and drying. As to the method:
The mixture of Example 5 and straight diacetone alcohol were tested as deglossers, wherein an alkyd surface was covered with cooking oil. Then a paper towel saturated with the liquid was used to wipe off both the oil and the surface sheen of the alkyd enamel. This was followed by painting with latex enamel. […] Said commercially available deglossers contained such chemicals as methylene chloride, alcohols, and petroleum distillates.

On to `CC(C)=O` [Acetone], for which, in data set [1] (background literature), the “toxicity / health effects in words” value was “low toxicity”.
Consider `CN1CCCC1=O` [NMP, n-methyl 2 pyrrolidone], for which the removal time entry in data set [2] (epoxy) is “ten”; in data set [2] (polyurethane enamel), 5 min. Further, the paint removal effectiveness result is “equally effective” in data set [2] (old lead based paint) and “would not succumb to NMP” in data set [2] (one surface with a modern coating).
As to `OCc1ccccc1` [benzyl alcohol], in data set [3], the paint removal ability result was “some ability to soften paint and remove it”.
For `ClCCl` [Methylene chloride], the metabolism entry in data set [1] (background literature) is reported as “metabolized to carbon monoxide”. Besides, the vapor pressure in data set [4] is 400 mm Hg.
As for `O=C1CCCN1` [pyrrolidone 2], in data set [5], the paint removal effectiveness entry is recorded as “ineffective as a paint remover”.
Regarding `CO` [Methanol], in data set [1] (Sax, Dangerous Properties of Industrial Materials), the elimination result was “slowness with which it is eliminated”. The “toxicity / health effects in words” value was “prolongs the period of cardiovascular stress caused by the methylene chloride” in data set [1] (background literature); “Severe exposures may cause dizziness, unconsciousness, sighing respiration, cardiac depression and eventually death” in data set [1] (background literature, listed as methanol).
For the compound `c1ccccc1` [benzene], the “toxicity / health effects in words” value in data set [1] (background literature) is “induces severe chronic toxic effects, causing anemia and damaging the bone marrow”.
As to xylene, the paint stripping effectiveness result is “ineffective” in data set [6] (alkyd sash and trim paint); “ineffective” in data set [6] (brushing lacquer); “very slow acting” in data set [6] (latex flat paint).
For the compound `CC(=O)CC(C)(C)O` [Diacetone Alcohol, diacetone alcohol], the “Minutes to Complete Bubbling” value in data set [7] (Acrylic enamel) worked out at 32 min; in data set [7] (Alkyd enamel), 40 min; in data set [7] (Polyurethane varnish), 36 min; in data set [7] (polyurethane enamel), 17 min. In data set [7] (Latex enamel (does not bubble)), this compound showed a time to softening of 4 min. The softening and bubbling entry in data set [7] (alkyd and epoxy surfaces) was “would soften alkyd and epoxy surfaces, permitting scraping but would not bubble them in a reasonable time”. For the same compound, the paint stripping effectiveness entry is recorded as “effective but very slow” in data set [6] (alkyd sash and trim paint); “equally effective” in data set [6] (brushing lacquer). Moreover, in data set [8], the “adhesion of the latex enamel to the alkyd enamel” value is given as “excellent”.
